Laboratory results as given in patent US8569295B2, “Bicyclic urea compounds” (Merck Patent GmbH, priority 2009, dated 2013).

Key:
GST-Aurora A = target: T1, GST-Aurora A (Homo sapiens, UniProt O14965); experiment: Aurora A kinase biochemical mobility shift assay (Caliper LC3000 / Desktop Profiler); settings: AK A (Aurora kinase A) inhibition
T1 construct: N-terminal GST fusion with full length Aurora A (1-403 amino acids); purchased Carna Biosciences 05-101
T1 sequence (O14965 1-403): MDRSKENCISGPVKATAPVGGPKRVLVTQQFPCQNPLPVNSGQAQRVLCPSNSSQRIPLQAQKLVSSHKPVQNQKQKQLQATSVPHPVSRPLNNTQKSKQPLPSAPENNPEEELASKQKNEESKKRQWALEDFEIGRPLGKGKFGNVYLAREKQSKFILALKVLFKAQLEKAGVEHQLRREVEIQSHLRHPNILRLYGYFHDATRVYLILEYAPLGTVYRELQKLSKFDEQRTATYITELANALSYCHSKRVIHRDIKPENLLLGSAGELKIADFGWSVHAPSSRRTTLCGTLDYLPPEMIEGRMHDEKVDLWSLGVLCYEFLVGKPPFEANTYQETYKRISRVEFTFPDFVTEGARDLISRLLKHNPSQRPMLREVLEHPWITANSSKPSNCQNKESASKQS
Protocol: (§1) The Aurora assays described here are performed on two Caliper Life Sciences systems: the LC3000 and the Desktop Profiler. The RON kinase assays are performed on the Desktop Profiler only. These provide data on enzyme activity via measurement of the relative amounts of phosphorylated or unphosphorylated fluorescently labelled substrate peptide at the end of an enzymatic reaction. These different states of peptide are resolved by applying a potential difference across the sample. The presence of the charged phosphate group on the product (as opposed to the substrate) causes a different peptide mobility between the two peptides. This is visualized by excitation of the fluorescent label on the substrate and product peptides and represented as peaks within the analysis software.
In order to measure inhibitor activity of Aurora A inhibitors in the Caliper Life Sciences LC3000, a TTP Mosquito liquid handling instrument is used to place 0.25 ul of the appropriate concentration of inhibitor in 100% DMSO (for a dose response curve calculation) into each well of a 384-well plate. To this reaction components are added to a final volume of 25 ul: • 0.067 ng/ul GST-Aurora A (Carna Biosciences 05-101. N-terminal GST fusion with full length Aurora A (1-403 amino acids), accession number NP_940835.1). • 15 uM ATP (Fluka, 02055) • 1 mM DTT (Sigma, D0632) • 1 mM MgCl2 (Sigma, M1028) • 1 uM substrate peptide (sequence FITC-LRRASLG-(CONH2), synthesized by Tufts Peptide Synthesis service. • 100 mM HEPES pH 7.5 (Calbiochem, 391338) • 0.015% Brij-35 (Sigma, B4184)
The reaction is incubated for 90 min at 25 C, and then stopped by the addition of 70 ul of Stop buffer (100 mM HEPES pH 7.5, 0.015% Brij-35, 10 mM EDTA (Sigma, E7889)).
The plate is read on a Caliper LC3000 in an Off-Chip mobility shift assay format, using the following parameters for a 12-sipper chip: screening pressure −1.8 psi, upstream voltage −2700, downstream voltage −1000. These conditions cause unphosphorylated substrate and phosphorylated product peptide to resolve as separate peaks allowing direct measurement of percentage of conversion of substrate to product. The percent conversion can be plotted against concentration of inhibitor to produce a sigmoidal dose response curve, from which an IC50 can be calculated using XLFit for Microsoft Excel.
(§2) The Desktop Profiler utilizes the same priniciple as the LC3000 for calculating percentage conversion of a substrate to product. Caliper Life Sciences provides proprietary flash frozen pre-made 384 well plates containing selected kinases. Each column in the 384 well plate contains a particular selected kinase. A second plate, the ‘substrate plate’ contains a mix of fluorescently labeled peptide substrate and ATP. These are arranged in columns so that transfer for substrate plate to enzyme plate provides the correct enzyme with the correct substrate/ATP concentration. Compounds are added to a thawed enzyme plate in the desired format, in single concentrations. Reactions are initiated by transfer of the substrate/ATP mix from the substrate plate. The enzyme plate is incubated for 90 minutes at 25 C. The reaction is stopped by addition of 70 ul of Stop Buffer (100 mM HEPES pH 7.5, 0.015% Brij-35, 10 mM EDTA (Sigma, E7889)).
(§3) Reading of the plate in the Profiler is identical to the LC3000, and the ratio between substrate and product peaks provides the activity of the enzyme in that well. This is best represented by a plate heat map which colors each well by percent inhibition as compared to positive and negative controls (no inhibitors and no ATP respectively).

RON kinase = target: T2, RON kinase (Homo sapiens, UniProt Q04912); experiment: RON kinase biochemical mobility shift assay (Caliper Desktop Profiler); settings: RON kinase inhibition
T2 construct: purchased Caliper Life Sciences
T2 sequence (Q04912 25-1400): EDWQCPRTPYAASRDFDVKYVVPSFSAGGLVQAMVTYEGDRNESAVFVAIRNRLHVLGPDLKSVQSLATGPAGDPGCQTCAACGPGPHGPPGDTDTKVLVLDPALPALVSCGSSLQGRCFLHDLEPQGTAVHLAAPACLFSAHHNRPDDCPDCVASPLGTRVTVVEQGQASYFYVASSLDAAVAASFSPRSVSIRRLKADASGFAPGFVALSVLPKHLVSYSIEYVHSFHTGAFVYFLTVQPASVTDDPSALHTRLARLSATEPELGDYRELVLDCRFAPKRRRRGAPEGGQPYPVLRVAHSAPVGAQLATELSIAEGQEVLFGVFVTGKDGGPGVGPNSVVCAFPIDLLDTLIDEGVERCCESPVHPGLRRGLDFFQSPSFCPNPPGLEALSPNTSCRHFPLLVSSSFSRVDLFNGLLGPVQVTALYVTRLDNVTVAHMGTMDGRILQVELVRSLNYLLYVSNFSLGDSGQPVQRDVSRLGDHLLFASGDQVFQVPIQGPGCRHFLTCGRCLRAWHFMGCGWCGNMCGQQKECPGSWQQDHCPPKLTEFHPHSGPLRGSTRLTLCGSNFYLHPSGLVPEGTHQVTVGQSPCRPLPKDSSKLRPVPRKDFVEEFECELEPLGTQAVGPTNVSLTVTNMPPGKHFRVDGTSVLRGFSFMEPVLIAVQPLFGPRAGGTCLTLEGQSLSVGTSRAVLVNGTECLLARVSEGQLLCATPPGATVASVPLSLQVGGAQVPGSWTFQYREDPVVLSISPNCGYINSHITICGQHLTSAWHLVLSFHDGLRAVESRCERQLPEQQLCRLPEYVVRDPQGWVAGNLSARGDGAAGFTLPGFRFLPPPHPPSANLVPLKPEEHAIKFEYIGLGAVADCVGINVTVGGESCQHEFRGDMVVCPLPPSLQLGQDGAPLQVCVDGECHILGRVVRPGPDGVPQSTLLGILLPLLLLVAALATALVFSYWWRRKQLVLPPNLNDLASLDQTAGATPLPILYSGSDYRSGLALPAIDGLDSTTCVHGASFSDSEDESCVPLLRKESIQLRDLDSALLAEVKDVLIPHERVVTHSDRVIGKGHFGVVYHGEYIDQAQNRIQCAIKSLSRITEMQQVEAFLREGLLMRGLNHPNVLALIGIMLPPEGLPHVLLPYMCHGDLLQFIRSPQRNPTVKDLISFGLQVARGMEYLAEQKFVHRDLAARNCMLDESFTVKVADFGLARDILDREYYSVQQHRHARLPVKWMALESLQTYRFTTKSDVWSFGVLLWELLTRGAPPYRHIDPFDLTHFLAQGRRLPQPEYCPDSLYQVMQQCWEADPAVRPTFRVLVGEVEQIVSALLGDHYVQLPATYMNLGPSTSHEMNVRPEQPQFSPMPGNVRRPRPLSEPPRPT
Protocol: as §1, §2, §3

| Structure (SMILES) | IC50 (GST-Aurora A) [µM] | IC50 (RON kinase) [µM] |
| --- | --- | --- |
| CN1Cc2c(Nc3ccc(NC(=O)c4cccc(F)c4F)c(F)c3)ccnc2NC1=O [Example 39, 2,3-difluoro-N-(2-fluoro-4-(3-methyl-2-oxo-1,2,3,4-tetrahydropyrido [2,3-d]pyrimidin-5-ylamino)phenyl) benzamide] | 0.01 to 0.1 |  |
| O=C(Nc1ccc(Nc2ccnc3c2CN(CC(F)(F)F)C(=O)N3)c(F)c1)c1ccc(F)cc1C(F)(F)F [Example 40, 4-fluoro-N-(3-fluoro-4-(2-oxo-3-(2,2,2-trifluoroethyl)-1,2,3,4-tetrahydropyrido[2,3-d]pyrimidin-5-ylamino)phenyl)-2-(trifluoromethyl) benzamide] | < 0.01 |  |
| CN1Cc2c(Nc3ccc(NC(=O)c4ccccc4F)cc3F)ccnc2NC1=O [Example 41, 2-fluoro-N-(3-fluoro-4-(3-methyl-2-oxo-1,2,3,4-tetrahydropyrido [2,3-d]pyrimidin-5-ylamino)phenyl) benzamide] | 0.01 to 0.1 |  |
| O=C(Nc1ccc(Nc2ccnc3c2C2OCCN2C(=O)N3)cc1)c1ccc(F)cc1C(F)(F)F (stereo not shown) [Example 43, 4-fluoro-N-(4-(5-oxo-3,5,6,10b-tetrahydro-2H-oxazolo[3,2-c]pyrido [3,2-e]pyrimidin-10-ylamino)phenyl)-2-(trifluoromethyl) benzamide] | 0.1 to 1 |  |
| Cc1c(C(=O)Nc2ccc(Oc3ccnc4c3CNC(=O)N4)c(F)c2)c(=O)n(-c2ccccc2)n1CC(C)(C)O [Example 74, N-{3-fluoro-4-[(2-oxo-1,2,3,4-tetrahydropyrido[2,3-d]pyrimidin-5-yl)oxy]phenyl}-1-(2-hydroxy-2-methylpropyl)-5-methyl-3-oxo-2-phenyl-2,3-dihydro-1H-pyrazole-4-carboxamide] |  | 0.1 to 1 |
| Cc1c(C(=O)Nc2ccc(Oc3ccnc4c3C3OCCCN3C(=O)N4)c(F)c2)c(=O)n(-c2ccccc2)n1CC(C)(C)O (stereo not shown) [Example 75, N-{3-fluoro-4-[(6-oxo-3,4,7,11b-tetrahydro-2H,6H-pyrido[2′,3′:4,5]pyrimido[6,1-b][1,3]oxazin-11-yl)oxy]phenyl}-1-(2-hydroxy-2-methylpropyl)-5-methyl-3-oxo-2-phenyl-2,3-dihydro-1H-pyrazole-4-carboxamide] |  | 0.1 to 1 |
| O=C(CC(F)(F)F)Nc1ccc(Nc2ccnc3c2CNC(=O)N3)cc1 [Example 107, 3,3,3-trifluoro-N-{4-[(2-oxo-1,2,3,4-tetrahydropyrido[2,3-d]pyrimidin-5-yl)amino]phenyl}propanamide] | 0.1 to 1 |  |
| O=C(CC1CC1)Nc1ccc(Nc2ccnc3c2CNC(=O)N3)cc1 [Example 108, 2-cyclopropyl-N-{4-[(2-oxo-1,2,3,4-tetrahydropyrido[2,3-d]pyrimidin-5-yl)amino]phenyl}acetamide] | 0.01 to 0.1 |  |
| O=C1NCc2c(Nc3ccc(NC(=O)c4ccc(F)cc4C(F)(F)F)cc3F)ccnc2N1 [Example 116, 4-fluoro-N-{3-fluoro-4-[(2-oxo-1,2,3,4-tetrahydropyrido[2,3-d]pyrimidin-5-yl)amino]phenyl}-2-(trifluoromethyl)benzamide] | < 0.01 |  |
| O=C1NCc2c(Nc3ccc(NC(=O)c4cccc(F)c4)cc3F)ccnc2N1 [Example 117, 3-fluoro-N-{3-fluoro-4-[(2-oxo-1,2,3,4-tetrahydropyrido[2,3-d]pyrimidin-5-yl)amino]phenyl}benzamide] | 0.01 to 0.1 |  |
| O=C1NCc2c(Nc3ccc(NC(=O)c4ccccc4F)cc3F)ccnc2N1 [Example 118, 2-fluoro-N-{3-fluoro-4-[(2-oxo-1,2,3,4-tetrahydropyrido[2,3-d]pyrimidin-5-yl)amino]phenyl}benzamide] | 0.01 to 0.1 |  |
| O=C(Nc1ccc(Nc2ccnc3c2CNC(=O)N3)cc1)Nc1ccc(F)cc1C(F)(F)F [Example 121, N-[4-fluoro-2-(trifluoromethyl)phenyl]-N′-{4-[(2-oxo-1,2,3,4-tetrahydropyrido[2,3-d]pyrimidin-5-yl)amino]phenyl}urea] | 0.01 to 0.1 |  |

Results, then the compound that gave them:

| IC50 (GST-Aurora A) [µM] | IC50 (RON kinase) [µM] | Structure (SMILES) |
| --- | --- | --- |
| 0.01 to 0.1 |  | O=C(Nc1ccc(Nc2ccnc3c2CN(CC(F)(F)F)C(=O)N3)cc1)c1ccc(F)cc1C(F)(F)F [Example 38, 4-fluoro-N-(4-(2-oxo-3-(2,2,2-trifluoroethyl)-1,2,3,4-tetrahydropyrido [2,3-d]pyrimidin-5-ylamino)phenyl)-2-(trifluoromethyl) benzamide] |
|  | < 0.01 | O=C1NCc2c(Oc3ccc(NC(=O)c4cccn(-c5ccc(F)cc5)c4=O)cc3F)ccnc2N1 [Example 59, N-{3-fluoro-4-[(2-oxo-1,2,3,4-tetrahydropyrido[2,3-d]pyrimidin-5-yl)oxy]phenyl}-1-(4-fluorophenyl)-2-oxo-1,2-dihydropyridine-3-carboxamide] |
| 0.1 to 1 |  | COc1ccc(CN2Cc3c(Nc4ccc(NC(=O)CC(F)(F)F)cc4)ccnc3NC2=O)cc1 [Example 100, 3,3,3-trifluoro-N-(4-{[3-(4-methoxybenzyl)-2-oxo-1,2,3,4-tetrahydropyrido[2,3-d]pyrimidin-5-yl]amino}phenyl)propanamide] |
| 0.01 to 0.1 |  | COc1ccc(CN2Cc3c(Nc4ccc(NC(=O)c5ccc(F)cc5C(F)(F)F)cc4F)ccnc3NC2=O)cc1 [Example 112, 4-fluoro-N-(3-fluoro-4-{[3-(4-methoxybenzyl)-2-oxo-1,2,3,4-tetrahydropyrido[2,3-d]pyrimidin-5-yl]amino}phenyl)-2-(trifluoromethyl)benzamide] |
| 0.1 to 1 |  | COc1ccc(CN2Cc3c(Nc4ccc(NC(=O)c5cccc(F)c5)cc4F)ccnc3NC2=O)cc1 [Example 113, 3-fluoro-N-(3-fluoro-4-{[3-(4-methoxybenzyl)-2-oxo-1,2,3,4-tetrahydropyrido[2,3-d]pyrimidin-5-yl]amino}phenyl)benzamide] |
| 0.1 to 1 |  | COc1ccc(CN2Cc3c(Nc4ccc(NC(=O)c5ccccc5F)cc4F)ccnc3NC2=O)cc1 [Example 114, 2-fluoro-N-(3-fluoro-4-{[3-(4-methoxybenzyl)-2-oxo-1,2,3,4-tetrahydropyrido[2,3-d]pyrimidin-5-yl]amino}phenyl)benzamide] |
| 0.1 to 1 |  | COc1ccc(CN2Cc3c(Nc4ccc(NC(=O)Nc5ccc(F)cc5C(F)(F)F)cc4)ccnc3NC2=O)cc1 [Example 119, N-[4-fluoro-2-(trifluoromethyl)phenyl]-N′-(4-{[3-(4-methoxybenzyl)-2-oxo-1,2,3,4-tetrahydropyrido[2,3-d]pyrimidin-5-yl]amino}phenyl)urea] |
| 0.1 to 1 |  | COc1ccc(CN2Cc3c(Nc4ccc(NC(=O)Nc5ccc(F)c(F)c5)cc4)ccnc3NC2=O)cc1 [Example 120, N-(3,4-difluorophenyl)-N′-(4-{[3-(4-methoxybenzyl)-2-oxo-1,2,3,4-tetrahydropyrido[2,3-d]pyrimidin-5-yl]amino}phenyl)urea] |
| 0.01 to 0.1 |  | COc1ccc(CN2Cc3c(-c4ccc(C(=O)NCc5ccc(F)c(OC)c5)s4)ccnc3NC2=O)cc1 [Example 129, N-(4-fluoro-3-methoxybenzyl)-5-[3-(4-methoxybenzyl)-2-oxo-1,2,3,4-tetrahydropyrido[2,3-d]pyrimidin-5-yl]thiophene-2-carboxamide] |
| 0.01 to 0.1 |  | COc1cc(CNC(=O)c2ccc(-c3ccnc4c3CNC(=O)N4)s2)ccc1F [Example 130, N-(4-fluoro-3-methoxybenzyl)-5-(2-oxo-1,2,3,4-tetrahydropyrido[2,3-d]pyrimidin-5-yl)thiophene-2-carboxamide] |
